# Test results: ChEMBL document CHEMBL5360534, “Synthetic α-glucosidase inhibitors as promising anti-diabetic agents: Recent developments and future challenges” (Eur J Med Chem, 2023)
# Columns and labels:
# Alpha-glucosidase [1] = biological target: T1, Alpha-glucosidase (Saccharomyces cerevisiae S288c, UniProt P53341+P38158+P07265); experiment: Inhibition of Saccharomyces cerevisiae alpha-glucosidase using p-nitrophenyl-[…]-D-glucopyranoside as substrate preincubated for 15 mins followed by substrate addition and measured after 15 mins by absorbance based microplate reader analysis; format: protein assay
# Alpha-glucosidase [2] = biological target: T1, Alpha-glucosidase; experiment: Inhibition of Saccharomyces cerevisiae alpha-glucosidase using p-nitrophenyl-alpha-D-glucopyranoside as substrate preincubated with compound followed by substrate addition and measured after 30 mins by absorbance based analysis; format: protein assay
# Alpha-glucosidase [3] = biological target: T1, Alpha-glucosidase; experiment: Inhibition of Saccharomyces cerevisiae alpha-glucosidase using p-nitrophenyl-alpha-D-glucopyranoside as substrate preincubated for 10 mins followed by substrate addition and measured after 20 mins by absorbance based microplate reader analysis; format: protein assay
# [4] = Inhibition of alpha-glucosidase (unknown origin) using 4-nitrophenyl-[…]-D-glucopyranoside as substrate preincubated for 20 mins followed by substrate addition and measured after 1 hr by absorbance based analysis; parameters: species or system Homo sapiens
# Alpha-glucosidase [5] = biological target: T1, Alpha-glucosidase; experiment: Inhibition of Saccharomyces cerevisiae alpha-glucosidase using p-nitrophenyl glucopyranoside as substrate preincubated for 10 mins followed by substrate addition and measured after 20 mins by spectrophotometric analysis; format: protein assay
# Alpha-glucosidase [6] = biological target: T1, Alpha-glucosidase; experiment: Non-competitive inhibition of Saccharomyces cerevisiae alpha-glucosidase using p-nitrophenyl glucopyranoside as substrate assessed as inhibition constant preincubated for 15 mins followed by substrate addition and measured after 20 mins by spectrophotometric analysis; format: protein assay
# Alpha-glucosidase [7] = biological target: T1, Alpha-glucosidase; experiment: Competitive inhibition of Saccharomyces cerevisiae alpha-glucosidase using p-nitrophenyl glucopyranoside as substrate assessed as inhibition constant preincubated for 15 mins followed by substrate addition and measured after 20 mins by spectrophotometric analysis; format: protein assay
# Alpha-glucosidase [8] = biological target: T1, Alpha-glucosidase; experiment: Inhibition of Saccharomyces cerevisiae alpha-glucosidase using p-nitrophenyl glucopyranoside as substrate preincubated for 10 mins followed by substrate addition and measured after 30 mins by absorbance based microplate reader analysis; format: protein assay
# Alpha-glucosidase [9] = biological target: T1, Alpha-glucosidase; experiment: Inhibition of Saccharomyces cerevisiae alpha-glucosidase using p-nitrophenyl-alpha-D-glucopyranoside as substrate preincubated for 15 mins followed by substrate addition and measured by microplate reader analysis; format: protein assay
# [10] = biological target: T2, Alpha-glucosidase (Saccharomyces cerevisiae S288c) (UniProt P53341+P38158+P07265); experiment: Potency index, ratio of acarbose IC50 to test compound IC50 for inhibition of Saccharomyces cerevisiae alpha-glucosidase using p-nitrophenyl-alpha-D-glucopyranoside as substrate preincubated for 15 mins followed by substrate addition and measured by microplate reader analysis; format: protein assay
# Alpha-glucosidase [11] = biological target: T1, Alpha-glucosidase; experiment: Non-competitive inhibition of Saccharomyces cerevisiae alpha-glucosidase using p-nitrophenyl-alpha-D-glucopyranoside as substrate assessed as inhibition constant preincubated for 10 mins followed by substrate addition and measured after 30 mins by spectrophotometric analysis; format: protein assay
# Alpha-glucosidase [12] = biological target: T1, Alpha-glucosidase; experiment: Inhibition of Saccharomyces cerevisiae alpha-glucosidase using p-nitrophenyl-alpha-D-glucopyranoside as substrate preincubated for 10 mins followed by substrate addition and measured after 30 mins by spectrophotometric analysis; format: protein assay
# [13] = Inhibition of alpha-glucosidase (unknown origin) using p-nitrophenyl-alpha-D-glucopyranoside as substrate preincubated for 5 mins followed by substrate addition and measured after 10 mins by absorbance based microplate reader analysis; parameters: species or system Homo sapiens
# [14] = (§1) Mixed-type inhibition of alpha-glucosidase (unknown origin) using p-nitropheny-alpha-D-glucopyranoside as substrate assessed as inhibition constant by measuring secondary plot of 1/V versus drug concentration preincubated for 5 mins followed by substrate addition and measured after 10 mins by absorbance based microplate reader analysis; parameters: species or system Homo sapiens
# [15] = as §1, with “intercept” for “secondary plot of 1/V”, “drug/substrate” for “drug”; parameters: species or system Homo sapiens
# Alpha-glucosidase [16] = biological target: T1, Alpha-glucosidase; experiment: Un-competitive inhibition of Saccharomyces cerevisiae alpha-glucosidase using p-nitrophenyl glucopyranoside as substrate assessed as inhibition constant preincubated for 15 mins followed by substrate addition and measured after 20 mins by spectrophotometric analysis; format: protein assay
# Alpha-glucosidase [17] = biological target: T1, Alpha-glucosidase; experiment: Inhibition of Saccharomyces cerevisiae alpha-glucosidase using p-nitrophenyl-alpha-D-glucopyranoside as substrate preincubated for 5 mins followed by substrate addition and measured after 5 mins by absorbance based analysis; format: protein assay
# [18] = biological target: T2, Alpha-glucosidase (Saccharomyces cerevisiae S288c); experiment: Potency index, ratio of acarbose IC50 to test compound IC50 for inhibition of Saccharomyces cerevisiae alpha-glucosidase using p-nitrophenyl-alpha-D-glucopyranoside as substrate preincubated for 5 mins followed by substrate addition and measured after 5 mins by absorbance based analysis; format: protein assay; conditions: time 10.0 min
# Alpha-glucosidase [19] = biological target: T1, Alpha-glucosidase; experiment: Inhibition of Saccharomyces cerevisiae alpha-glucosidase using p-nitrophenyl-alpha-D-glucopyranoside as substrate preincubated for 10 mins followed by substrate addition and measured by absorbance based analysis; format: protein assay
# Alpha-glucosidase [20] = biological target: T1, Alpha-glucosidase; experiment: Reversible non-competitive inhibition of Saccharomyces cerevisiae alpha-glucosidase using p-nitrophenyl-alpha-D-glucopyranoside as substrate assessed as inhibition constant preincubated for 10 mins followed by substrate addition and measured by absorbance based analysis; format: protein assay
# Alpha-glucosidase [21] = biological target: T1, Alpha-glucosidase; experiment: Inhibition of Saccharomyces cerevisiae alpha-glucosidase using p-nitrophenyl-alpha-D-glucopyranoside as substrate preincubated for 15 mins followed by substrate addition and measured after 30 mins by spectrophotometric analysis; format: protein assay
# Alpha-glucosidase [22] = biological target: T1, Alpha-glucosidase; experiment: Non-competitive inhibition of Saccharomyces cerevisiae alpha-glucosidase using p-nitrophenyl-alpha-D-glucopyranoside as substrate assessed as inhibition constant preincubated for 15 mins followed by substrate addition and measured after 30 mins by spectrophotometric analysis; format: protein assay
# Alpha-glucosidase [23] = biological target: T1, Alpha-glucosidase; experiment: Inhibition of Saccharomyces cerevisiae alpha-glucosidase using p-nitrophenyl-alpha-D-glucopyranoside as substrate preincubated for 5 mins followed by substrate addition and measured after 15 mins by absorbance based microplate reader analysis; format: protein assay
# [24] = Inhibition of alpha-glucosidase (unknown origin) using p-nitrophenyl-alpha-D-glucopyranoside as substrate preincubated for 10 mins followed by substrate addition and measured after 20 mins by absorbance based analysis; parameters: species or system Homo sapiens
# Homo sapiens = species: Homo sapiens; experiment: Potency index, ratio of acarbose IC50 to test compound IC50 for inhibition of alpha-glucosidase (unknown origin) using p-nitrophenyl-alpha-D-glucopyranoside as substrate preincubated for 10 mins followed by substrate addition and measured after 20 mins by absorbance based analysis; conditions: time 30.0 min
smiles,measurement,setting,value
O=C1Nc2ccc([N+](=O)[O-])cc2C1(c1c[nH]c2ccc(O)cc12)c1c[nH]c2cccc(O)c12 (configuration not stated),IC50,Alpha-glucosidase [1],67 µM
CC1=NN(c2ccc([N+](=O)[O-])cc2)C(=O)/C1=C/c1cn(-c2ccccc2)nc1-c1cc2cc(Br)ccc2oc1=O,IC50,Alpha-glucosidase [2],2.1 µM
O=C1CS/C(=N\N=C\c2ccc(OS(=O)(=O)c3ccccc3[N+](=O)[O-])cc2)N1,IC50,Alpha-glucosidase [3],42.8 µM
Oc1ccccc1-c1cc(-c2ccc(C(F)(F)F)cc2)n(-c2ccccc2)n1,IC50,[4],115 µM
N#CC1=C(N)Oc2c(c(=O)[nH]c3c2ccc2ccccc23)C1c1ccc(Br)cc1 (configuration not stated),IC50,Alpha-glucosidase [5],15.7 µM
same,Ki,Alpha-glucosidase [6],28 µM
O=C(Cn1cc(CNC(=O)c2c3ccccc3nc3ccccc23)nn1)Nc1cccc(Br)c1,IC50,Alpha-glucosidase [5],80.3 µM
same,Ki,Alpha-glucosidase [7],78 µM
Cc1cccc(NC(=O)CSc2nnc(Cc3c[nH]c4ccccc34)o2)c1,IC50,Alpha-glucosidase [8],9.37 µM
Oc1cc(-c2cc3cccc(Cl)c3o2)cc(O)c1O,IC50,Alpha-glucosidase [9],0.83 µM
same,Ratio IC50,[10],167
O=C(N/N=C/c1cc(Cl)cc(Cl)c1O)c1nc(-c2cc3ccccc3oc2=O)cs1,Ki,Alpha-glucosidase [11],6.86 µM
same,IC50,Alpha-glucosidase [12],6.24 µM
O=C1CNC(=S)N1C(=O)c1cc([N+](=O)[O-])cc([N+](=O)[O-])c1,IC50,[13],50 µM
same,Ki,[14],34 µM
same,Ki,[15],156 µM
N#CC1=C(N)Oc2c(c(=O)[nH]c3c2ccc2ccccc23)C1c1ccc(Cl)cc1 (configuration not stated),IC50,Alpha-glucosidase [5],10.3 µM
same,Ki,Alpha-glucosidase [16],11 µM
O=c1cc(-c2cccc(OCc3cc(C(F)(F)F)ccc3C(F)(F)F)c2)oc2ccccc12,IC50,Alpha-glucosidase [17],1.26 µM
same,Ratio IC50,[18],30
C/C(=N\OC(=O)/C=C/c1ccc(Br)cc1)c1cc2ccc(Br)cc2oc1=O,IC50,Alpha-glucosidase [19],2.54 µM
same,Ki,Alpha-glucosidase [20],1.5 µM
O=C(COc1ccc2ccc(=O)oc2c1)N/N=C1\C(=O)N(Cc2ccccc2F)c2ccc(Cl)cc21,IC50,Alpha-glucosidase [21],2.56 µM
same,Ki,Alpha-glucosidase [22],2.04 µM
O=C(c1ccc(O)cc1)C1Cc2c(ccc3ccccc23)O1 (configuration not stated),IC50,Alpha-glucosidase [23],6.5 µM
N#CC(c1c[nH]c2ccc(Br)cc12)c1c[nH]c2ccc(Br)cc12,IC50,[24],7.54 µM
same,Ratio IC50,Homo sapiens,30
